In ChEMBL document CHEMBL5335862, “The Science and Art of Structure-Based Virtual Screening” (ACS Med Chem Lett, 2024):

Target: CREB-binding protein (Homo sapiens, UniProt Q92793)
Assay: Inhibition of CREBBP (unknown origin) by TR-FRET assay

Sequence of CREB-binding protein (Q92793 whole entry): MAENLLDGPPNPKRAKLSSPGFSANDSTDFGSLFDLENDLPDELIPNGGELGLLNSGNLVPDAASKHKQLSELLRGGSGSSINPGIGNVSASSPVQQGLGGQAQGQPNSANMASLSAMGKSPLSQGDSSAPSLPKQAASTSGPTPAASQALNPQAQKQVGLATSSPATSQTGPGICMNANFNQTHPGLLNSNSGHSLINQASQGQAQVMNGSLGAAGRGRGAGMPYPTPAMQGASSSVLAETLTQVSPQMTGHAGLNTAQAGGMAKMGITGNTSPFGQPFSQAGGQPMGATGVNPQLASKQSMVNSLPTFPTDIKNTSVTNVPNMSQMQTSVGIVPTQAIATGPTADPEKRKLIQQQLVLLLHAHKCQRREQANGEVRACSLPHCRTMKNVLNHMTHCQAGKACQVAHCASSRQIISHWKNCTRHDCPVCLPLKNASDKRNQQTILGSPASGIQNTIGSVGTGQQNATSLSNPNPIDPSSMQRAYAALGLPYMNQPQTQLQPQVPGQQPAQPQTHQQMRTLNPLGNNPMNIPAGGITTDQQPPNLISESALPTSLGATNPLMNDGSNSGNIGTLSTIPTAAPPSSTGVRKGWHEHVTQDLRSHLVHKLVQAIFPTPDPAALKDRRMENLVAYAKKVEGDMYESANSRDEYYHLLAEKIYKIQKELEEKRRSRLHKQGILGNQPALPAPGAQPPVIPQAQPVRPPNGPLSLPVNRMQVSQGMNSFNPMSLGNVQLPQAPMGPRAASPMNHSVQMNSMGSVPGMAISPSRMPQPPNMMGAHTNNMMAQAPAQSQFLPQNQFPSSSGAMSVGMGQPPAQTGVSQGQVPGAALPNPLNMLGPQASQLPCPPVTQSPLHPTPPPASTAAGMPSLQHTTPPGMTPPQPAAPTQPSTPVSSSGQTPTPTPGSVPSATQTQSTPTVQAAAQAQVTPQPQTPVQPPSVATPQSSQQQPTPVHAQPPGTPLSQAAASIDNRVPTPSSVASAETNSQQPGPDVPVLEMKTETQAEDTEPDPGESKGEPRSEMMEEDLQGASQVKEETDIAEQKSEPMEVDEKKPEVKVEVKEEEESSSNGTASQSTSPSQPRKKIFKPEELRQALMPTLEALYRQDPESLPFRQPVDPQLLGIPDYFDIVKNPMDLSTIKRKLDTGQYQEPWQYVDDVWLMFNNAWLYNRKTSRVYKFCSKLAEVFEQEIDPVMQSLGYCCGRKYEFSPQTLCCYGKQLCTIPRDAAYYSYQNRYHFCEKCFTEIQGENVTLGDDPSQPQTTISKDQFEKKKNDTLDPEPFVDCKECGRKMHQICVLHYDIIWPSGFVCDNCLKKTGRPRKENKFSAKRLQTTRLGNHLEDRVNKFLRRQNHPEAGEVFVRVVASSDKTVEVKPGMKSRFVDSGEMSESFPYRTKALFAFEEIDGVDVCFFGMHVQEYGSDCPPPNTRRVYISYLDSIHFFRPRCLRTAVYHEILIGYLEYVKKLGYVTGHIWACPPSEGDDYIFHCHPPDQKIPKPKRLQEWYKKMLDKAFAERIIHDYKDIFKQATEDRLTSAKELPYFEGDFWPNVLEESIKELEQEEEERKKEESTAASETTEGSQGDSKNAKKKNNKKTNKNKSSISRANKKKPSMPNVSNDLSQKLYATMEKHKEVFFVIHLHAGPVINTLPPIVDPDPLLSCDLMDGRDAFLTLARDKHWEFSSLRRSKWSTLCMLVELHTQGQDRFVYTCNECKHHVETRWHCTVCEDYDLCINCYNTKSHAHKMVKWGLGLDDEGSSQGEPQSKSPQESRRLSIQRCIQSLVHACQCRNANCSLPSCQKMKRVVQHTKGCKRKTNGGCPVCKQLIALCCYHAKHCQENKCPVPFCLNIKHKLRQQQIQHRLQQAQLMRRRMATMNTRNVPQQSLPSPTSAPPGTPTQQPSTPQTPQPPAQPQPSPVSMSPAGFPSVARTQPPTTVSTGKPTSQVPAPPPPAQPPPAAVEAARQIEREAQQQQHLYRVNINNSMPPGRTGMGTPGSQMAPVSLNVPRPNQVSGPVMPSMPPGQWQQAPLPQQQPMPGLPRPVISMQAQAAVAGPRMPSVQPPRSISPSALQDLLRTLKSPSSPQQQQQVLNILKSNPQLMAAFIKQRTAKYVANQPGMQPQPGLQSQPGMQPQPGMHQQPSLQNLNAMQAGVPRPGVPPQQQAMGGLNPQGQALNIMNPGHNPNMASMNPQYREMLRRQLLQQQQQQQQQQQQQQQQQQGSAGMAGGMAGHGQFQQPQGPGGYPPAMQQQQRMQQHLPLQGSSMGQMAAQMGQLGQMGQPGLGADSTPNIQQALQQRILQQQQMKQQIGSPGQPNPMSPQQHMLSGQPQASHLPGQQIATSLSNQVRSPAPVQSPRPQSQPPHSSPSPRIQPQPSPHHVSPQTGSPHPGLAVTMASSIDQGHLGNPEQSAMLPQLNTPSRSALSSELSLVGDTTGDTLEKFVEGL

| IC50 [nM] | SMILES |
| --- | --- |
| 300 | Cc1cc2c(C(N)=O)c(N)n(-c3c(C)ccc(O)c3C)c2nc1C [LUNRESERTIB] |
| 300 | Cc1ccc(O)cc1-n1c(N)c(C(N)=O)c2nc3ccccc3nc21 |
